The text below walks through data of ChEMBL document CHEMBL5614367, “Hydroxamic acid hybrids: Histone deacetylase inhibitors with anticancer therapeutic potency” (Eur J Med Chem, 2023).

The structures appear in SMILES notation.

One data set concerns PC-3. The experiment in a line: cells. In kind it is functional. Conditions: Homo sapiens, time 96 hrs.
A further data set concerns the target Histone deacetylase. The experiment in a line: Inhibition of HDAC in human HeLa cell nuclear extract using Boc-Lys(Ac)-AMC as substrate preincubated for 15 mins followed by substrate addition and measured after 60 mins by fluorescence based analysis. In kind it is subcellular, Nucleus.
Data set [1] addresses MAP kinase-interacting serine/threonine-protein kinase 1 (Homo sapiens) (UniProt Q9BUB5). The experiment in a line: Inhibition of MNK1 (unknown origin) at 1 uM incubated for 60 mins by HTRF assay relative to control. In general terms: TR-FRET usually uses a lanthanide donor and a delayed reading to cut background.
In data set [2] the target is MAP kinase-interacting serine/threonine-protein kinase 2 (Homo sapiens) (UniProt Q9HBH9). The experiment in a line: Inhibition of MNK2 (unknown origin) at 1 uM incubated for 60 mins by HTRF assay relative to control.
Data set [3] deals with K562. The experiment in a line: cells. In kind it is functional, cell-based. Conditions: Homo sapiens, K562, 72 h.
Description: Antiproliferative activity against human K562 cells assessed as inhibition of cell growth measured after 72 hrs by CCK-8 assay
For a further data set, the system named is U-266. The experiment in a line: cells. The data set is classed as functional, cell-based. Conditions: Homo sapiens, U-266, 72 h.
Data set [4] relates to U-937. The experiment in a line: cells. In kind it is functional, cell-based. Conditions: Homo sapiens, U-937, 72 h.
Description: Antiproliferative activity against human U-937 cells assessed as inhibition of cell growth measured after 72 hrs by CCK-8 assay
The next data set deals with C6. The experiment in a line: cells. In kind it is functional, cell-based. Particulars: Rattus norvegicus, C6, 72 h.
The next data set concerns FaDu. The experiment in a line: cells. In kind it is functional, cell-based. Conditions: Homo sapiens, 72 h.
Another data set deals with MDA-MB-231. The experiment in a line: cells. In kind it is functional, cell-based. Particulars: Homo sapiens, MDA-MB-231, 72 h.
A further data set has as its system MDA-MB-468. The experiment in a line: cells. Conditions: Homo sapiens, MDA-MB-468, 72 h. The data set is classed as functional, cell-based.
The next data set concerns A549. The experiment in a line: cells. The data set is classed as functional, cell-based. Conditions: Homo sapiens, A549, 72 h.
For the next data set, the system named is A2780. The experiment in a line: cells. The data set is classed as functional, cell-based. Conditions: Homo sapiens, A2780, 72 h.
The test system of another data set is HepG2. The experiment in a line: cells. In kind it is functional, cell-based. Particulars: Homo sapiens, HepG2, 72 h.
Data set [5] addresses T1, Protein deacetylase HDAC6 (Homo sapiens, UniProt Q9UBN7).
T1 sequence (Q9UBN7 whole entry): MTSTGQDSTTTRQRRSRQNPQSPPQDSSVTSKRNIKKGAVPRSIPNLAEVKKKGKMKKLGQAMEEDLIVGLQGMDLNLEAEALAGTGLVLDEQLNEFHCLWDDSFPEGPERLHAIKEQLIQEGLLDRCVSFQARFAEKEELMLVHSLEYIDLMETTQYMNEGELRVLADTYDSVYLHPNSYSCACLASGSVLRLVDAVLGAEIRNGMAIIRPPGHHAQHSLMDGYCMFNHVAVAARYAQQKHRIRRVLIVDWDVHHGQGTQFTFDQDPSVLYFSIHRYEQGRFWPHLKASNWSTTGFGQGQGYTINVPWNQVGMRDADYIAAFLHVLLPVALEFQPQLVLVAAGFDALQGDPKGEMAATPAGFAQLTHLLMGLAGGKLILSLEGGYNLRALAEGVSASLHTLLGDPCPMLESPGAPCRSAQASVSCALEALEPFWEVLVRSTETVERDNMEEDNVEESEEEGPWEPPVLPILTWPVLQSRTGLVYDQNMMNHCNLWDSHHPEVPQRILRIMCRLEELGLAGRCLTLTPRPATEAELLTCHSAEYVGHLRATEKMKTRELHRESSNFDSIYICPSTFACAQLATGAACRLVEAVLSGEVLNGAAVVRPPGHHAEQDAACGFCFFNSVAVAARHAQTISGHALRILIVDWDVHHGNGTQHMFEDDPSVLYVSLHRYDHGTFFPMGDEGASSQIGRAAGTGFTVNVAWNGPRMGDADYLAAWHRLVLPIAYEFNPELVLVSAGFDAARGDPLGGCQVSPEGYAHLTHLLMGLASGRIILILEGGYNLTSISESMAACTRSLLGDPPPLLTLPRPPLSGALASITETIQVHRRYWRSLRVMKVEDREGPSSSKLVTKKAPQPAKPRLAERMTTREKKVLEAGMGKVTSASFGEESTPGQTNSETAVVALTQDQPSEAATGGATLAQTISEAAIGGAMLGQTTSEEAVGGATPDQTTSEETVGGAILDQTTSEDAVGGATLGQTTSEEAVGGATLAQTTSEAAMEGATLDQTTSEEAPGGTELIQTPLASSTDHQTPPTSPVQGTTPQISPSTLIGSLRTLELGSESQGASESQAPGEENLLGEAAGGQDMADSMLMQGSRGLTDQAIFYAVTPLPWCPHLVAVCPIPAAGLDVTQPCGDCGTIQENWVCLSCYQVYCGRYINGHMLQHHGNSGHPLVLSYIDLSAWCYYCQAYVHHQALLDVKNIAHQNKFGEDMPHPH
The experiment in a line: Inhibition of HDAC6 (unknown origin).

The target in a further data set is Histone deacetylase 1 (Homo sapiens, UniProt Q13547). The experiment in a line: Inhibition of HDAC1 (unknown origin).
Data set [6] deals with K562. The experiment in a line: Antiproliferative activity against human K562 cells by MTT assay. The data set is classed as functional, cell-based.
The subject of data set [7] is U-937. The experiment in a line: Antiproliferative activity against human U-937 cells by MTT assay. The data set is classed as functional, cell-based.
In data set [8] the test system is HCT-116. The experiment in a line: Antiproliferative activity against human HCT-116 cells by MTT assay. The data set is classed as functional, cell-based.
For data set [9], the target named is DNA (cytosine-5)-methyltransferase 1 (Homo sapiens, UniProt P26358). The experiment in a line: Inhibition of DNMT1 (unknown origin).
Data set [10] can be described thus: Metabolic stability in rat liver microsomes assessed as half life. In kind it is ADME, Microsome. Background: Liver microsomes are vesicles of endoplasmic reticulum, rich in cytochrome P450 enzymes.
For the next data set, the target named is Cytochrome P450 2D6 (Homo sapiens, UniProt P10635). The experiment in a line: Inhibition of CYP2D6 in human liver microsomes. In kind it is ADME, Microsome.
For another data set, the system named is A-431. The experiment in a line: Antiproliferative activity against human A-431 cells assessed as inhibition of cell growth by MTT assay. The data set is classed as functional, cell-based. (In general: Tetrazolium assays rely on reduction of a dye to a coloured formazan, in cell work by metabolically active cells.)
Another data set has as its system MCF7. The experiment in a line: Antiproliferative activity against human MCF7 cells assessed as inhibition of cell growth by MTT assay. The data set is classed as functional, cell-based.
Data set [11] concerns HCT-116. The experiment in a line: Antiproliferative activity against human HCT-116 cells assessed as inhibition of cell growth by MTT assay. The data set is classed as functional, cell-based.
The target of data set [12] is E3 ubiquitin-protein ligase Mdm2 (Homo sapiens) (UniProt Q00987). The experiment in a line: Inhibition of MDM2 (unknown origin) using biotinylated P53 peptide as substrate at 1 uM by HTRF assay relative to control.

As a reminder, the GI50 is the concentration giving 50% growth inhibition. A high value points to lower sensitivity of the cells. By IC50 is commonly meant the point on the concentration scale where inhibition reaches its midpoint. A word on the inhibition: it is the drop in the measured response relative to a control, in per cent. Read a low inhibition as a weak effect. As usually defined, the half-life is how long it takes for the measured level to halve.

Sequence of DNA (cytosine-5)-methyltransferase 1 (P26358 whole entry): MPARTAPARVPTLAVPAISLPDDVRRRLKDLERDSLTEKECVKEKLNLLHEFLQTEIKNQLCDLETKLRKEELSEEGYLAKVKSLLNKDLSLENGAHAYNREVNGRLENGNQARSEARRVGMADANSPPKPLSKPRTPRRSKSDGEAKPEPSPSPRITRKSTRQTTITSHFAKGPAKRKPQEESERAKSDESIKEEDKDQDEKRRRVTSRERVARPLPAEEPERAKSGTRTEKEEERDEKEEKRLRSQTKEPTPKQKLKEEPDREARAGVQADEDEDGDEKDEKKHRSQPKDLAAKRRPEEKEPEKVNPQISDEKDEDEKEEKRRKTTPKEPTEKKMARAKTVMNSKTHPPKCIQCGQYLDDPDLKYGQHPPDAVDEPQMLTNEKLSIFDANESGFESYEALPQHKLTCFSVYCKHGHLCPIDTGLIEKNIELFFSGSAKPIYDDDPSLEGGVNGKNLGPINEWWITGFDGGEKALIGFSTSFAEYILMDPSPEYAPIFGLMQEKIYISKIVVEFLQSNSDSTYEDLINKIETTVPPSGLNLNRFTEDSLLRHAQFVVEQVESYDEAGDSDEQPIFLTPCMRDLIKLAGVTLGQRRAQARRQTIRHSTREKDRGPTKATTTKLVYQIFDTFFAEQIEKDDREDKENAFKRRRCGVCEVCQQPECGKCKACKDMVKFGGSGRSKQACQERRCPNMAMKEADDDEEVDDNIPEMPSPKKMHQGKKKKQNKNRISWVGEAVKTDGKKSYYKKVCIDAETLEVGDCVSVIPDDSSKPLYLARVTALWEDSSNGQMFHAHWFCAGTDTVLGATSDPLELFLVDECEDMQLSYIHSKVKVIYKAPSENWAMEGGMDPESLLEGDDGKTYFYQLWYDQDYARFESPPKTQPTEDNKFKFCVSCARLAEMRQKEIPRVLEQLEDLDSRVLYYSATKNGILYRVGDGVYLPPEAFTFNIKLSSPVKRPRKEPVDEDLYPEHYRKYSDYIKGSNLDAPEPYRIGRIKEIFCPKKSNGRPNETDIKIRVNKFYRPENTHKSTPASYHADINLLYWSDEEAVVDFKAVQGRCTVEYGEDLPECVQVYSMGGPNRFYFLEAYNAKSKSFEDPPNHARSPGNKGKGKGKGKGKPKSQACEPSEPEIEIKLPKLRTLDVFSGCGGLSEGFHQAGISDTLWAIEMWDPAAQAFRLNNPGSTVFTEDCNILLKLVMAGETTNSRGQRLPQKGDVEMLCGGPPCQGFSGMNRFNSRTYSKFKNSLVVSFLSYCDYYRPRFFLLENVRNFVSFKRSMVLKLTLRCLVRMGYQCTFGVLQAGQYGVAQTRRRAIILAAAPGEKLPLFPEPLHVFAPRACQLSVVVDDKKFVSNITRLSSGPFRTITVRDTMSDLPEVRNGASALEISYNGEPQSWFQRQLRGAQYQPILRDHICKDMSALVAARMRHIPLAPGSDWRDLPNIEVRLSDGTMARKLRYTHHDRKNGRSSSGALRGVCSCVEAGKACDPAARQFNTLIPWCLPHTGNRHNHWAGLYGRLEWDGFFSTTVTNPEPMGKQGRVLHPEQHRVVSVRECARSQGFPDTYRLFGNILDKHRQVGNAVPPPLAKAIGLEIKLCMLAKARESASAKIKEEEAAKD
Sequence of MAP kinase-interacting serine/threonine-protein kinase 2 (Homo sapiens) (Q9HBH9 whole entry, looked up): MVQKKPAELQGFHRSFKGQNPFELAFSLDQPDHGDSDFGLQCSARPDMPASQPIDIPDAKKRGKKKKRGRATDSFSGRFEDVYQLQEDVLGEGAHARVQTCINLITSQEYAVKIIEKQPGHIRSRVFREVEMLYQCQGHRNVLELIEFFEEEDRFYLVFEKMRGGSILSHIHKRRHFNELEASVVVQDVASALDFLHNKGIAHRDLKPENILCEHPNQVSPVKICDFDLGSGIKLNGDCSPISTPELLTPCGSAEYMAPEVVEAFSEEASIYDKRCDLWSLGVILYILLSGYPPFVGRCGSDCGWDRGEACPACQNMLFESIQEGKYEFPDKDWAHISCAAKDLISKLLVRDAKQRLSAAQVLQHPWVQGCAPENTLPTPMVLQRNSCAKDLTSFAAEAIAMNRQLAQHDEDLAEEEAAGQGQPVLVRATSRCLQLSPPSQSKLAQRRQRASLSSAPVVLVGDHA
Sequence of E3 ubiquitin-protein ligase Mdm2 (Homo sapiens) (Q00987 whole entry, looked up): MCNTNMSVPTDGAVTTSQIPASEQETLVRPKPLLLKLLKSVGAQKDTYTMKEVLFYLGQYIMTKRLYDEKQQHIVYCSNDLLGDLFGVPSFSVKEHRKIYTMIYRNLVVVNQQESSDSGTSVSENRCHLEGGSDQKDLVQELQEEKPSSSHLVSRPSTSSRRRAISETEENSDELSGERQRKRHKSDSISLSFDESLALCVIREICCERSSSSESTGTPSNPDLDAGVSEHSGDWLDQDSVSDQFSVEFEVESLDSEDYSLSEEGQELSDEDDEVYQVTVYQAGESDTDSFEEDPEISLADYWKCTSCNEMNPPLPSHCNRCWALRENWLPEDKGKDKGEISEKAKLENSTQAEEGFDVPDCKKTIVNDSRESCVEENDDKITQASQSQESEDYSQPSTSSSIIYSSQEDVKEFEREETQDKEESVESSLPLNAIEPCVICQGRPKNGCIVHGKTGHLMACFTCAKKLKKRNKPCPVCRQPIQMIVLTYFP
Sequence of Histone deacetylase 1 (Q13547 whole entry): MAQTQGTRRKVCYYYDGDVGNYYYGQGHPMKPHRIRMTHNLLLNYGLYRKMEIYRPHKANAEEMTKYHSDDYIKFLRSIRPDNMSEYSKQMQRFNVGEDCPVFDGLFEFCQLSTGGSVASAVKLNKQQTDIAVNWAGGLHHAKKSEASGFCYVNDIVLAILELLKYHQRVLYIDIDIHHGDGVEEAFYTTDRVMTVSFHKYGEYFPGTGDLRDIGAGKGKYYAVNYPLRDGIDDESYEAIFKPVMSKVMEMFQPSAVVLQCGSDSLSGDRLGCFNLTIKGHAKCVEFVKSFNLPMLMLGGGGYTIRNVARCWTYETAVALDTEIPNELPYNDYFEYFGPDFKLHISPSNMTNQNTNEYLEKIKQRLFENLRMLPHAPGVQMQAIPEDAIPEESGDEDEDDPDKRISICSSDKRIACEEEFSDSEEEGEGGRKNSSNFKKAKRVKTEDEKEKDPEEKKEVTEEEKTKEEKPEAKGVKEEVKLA
Sequence of Cytochrome P450 2D6 (P10635 whole entry): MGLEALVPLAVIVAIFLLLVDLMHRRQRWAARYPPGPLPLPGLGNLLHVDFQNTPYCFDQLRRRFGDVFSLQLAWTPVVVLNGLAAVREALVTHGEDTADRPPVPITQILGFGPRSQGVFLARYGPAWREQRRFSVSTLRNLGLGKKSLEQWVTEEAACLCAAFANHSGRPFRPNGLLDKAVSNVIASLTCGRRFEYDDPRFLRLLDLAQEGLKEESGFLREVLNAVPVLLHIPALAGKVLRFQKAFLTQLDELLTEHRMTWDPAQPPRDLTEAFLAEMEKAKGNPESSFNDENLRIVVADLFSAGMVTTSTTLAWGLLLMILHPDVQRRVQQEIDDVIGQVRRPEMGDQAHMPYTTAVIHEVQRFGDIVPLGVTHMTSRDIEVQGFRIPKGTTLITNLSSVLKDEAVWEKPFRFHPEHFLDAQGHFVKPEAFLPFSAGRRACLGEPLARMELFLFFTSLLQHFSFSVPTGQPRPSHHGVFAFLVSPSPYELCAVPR
Sequence of MAP kinase-interacting serine/threonine-protein kinase 1 (Homo sapiens) (Q9BUB5 whole entry, looked up): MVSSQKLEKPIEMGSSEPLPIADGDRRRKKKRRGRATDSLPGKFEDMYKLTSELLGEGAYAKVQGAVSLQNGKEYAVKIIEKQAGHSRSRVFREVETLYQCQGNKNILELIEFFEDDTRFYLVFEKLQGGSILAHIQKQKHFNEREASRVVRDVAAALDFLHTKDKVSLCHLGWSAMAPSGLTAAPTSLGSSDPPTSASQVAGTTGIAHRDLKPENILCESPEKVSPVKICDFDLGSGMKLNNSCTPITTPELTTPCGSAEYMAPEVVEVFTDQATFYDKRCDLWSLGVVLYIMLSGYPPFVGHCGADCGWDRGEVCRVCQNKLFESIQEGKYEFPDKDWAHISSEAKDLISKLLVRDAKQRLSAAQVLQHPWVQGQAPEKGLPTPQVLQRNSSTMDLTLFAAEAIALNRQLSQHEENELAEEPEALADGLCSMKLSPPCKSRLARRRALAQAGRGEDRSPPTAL
Description for A2780: Antiproliferative activity against human A2780 cells assessed as inhibition of cell growth measured after 72 hrs by CCK-8 assay
Description for A549: Antiproliferative activity against human A549 cells assessed as inhibition of cell growth measured after 72 hrs by CCK-8 assay
Description for FaDu: Antiproliferative activity against human FaDu cells assessed as inhibition of cell growth measured after 72 hrs by CCK-8 assay
Description for MDA-MB-231: Antiproliferative activity against human MDA-MB-231 cells assessed as inhibition of cell growth measured after 72 hrs by CCK-8 assay
Description for MDA-MB-468: Antiproliferative activity against human MDA-MB-468 cells assessed as inhibition of cell growth measured after 72 hrs by CCK-8 assay
Description for U-266: Antiproliferative activity against human U-266 cells assessed as inhibition of cell growth measured after 72 hrs by CCK-8 assay

Turning to `O=C(CCCCCCC(=O)Nc1ccc2ncnc(Nc3ccc(F)cc3)c2n1)NO`, the GI50 with PC-3 turned out to be 2910 nM. The compound also had an IC50 on Histone deacetylase of 780 nM. Besides, the inhibition in data set [1] amounted to 54%; in data set [2] it was 70%.
With `COc1cc(Nc2nc(N3CCN(c4ncc(C(=O)NO)cn4)CC3)ncc2Cl)cc(OC)c1`, the IC50 with K562 [3], in the data set on U-266, in the data set on U-937 [4], with C6, with FaDu and with MDA-MB-231 was 280 nM throughout. In addition, the IC50 in the data set on MDA-MB-468, in the data set with A549, in the data set with A2780 and in the data set on HepG2 was 280 nM throughout.
Regarding `Nc1ccn(Cc2ccc(-c3cn(CCCCCCC(=O)NO)nn3)cc2)c(=O)n1`, the half-inhibitory concentration (IC50) in data set [5] was found to be 8.37 nM; at Histone deacetylase 1 it was 2.68 nM; with K562 [6], 7100 nM; in the data set on U-937 [7], 7100 nM; with HCT-116 [8], 7100 nM; in data set [9] it was 6390 nM. Moreover, the IC50 against Cytochrome P450 2D6 is 8700 nM. Besides, the half-life in [10] came to 6.08 h.
With `O=C(CCCCCCC(=O)N1CCC(C(=O)Nc2ccc([C@@H]3[C@H]4CSCN4[C@]4(C(=O)Nc5cc(Cl)ccc54)[C@H]3C(=O)c3ccccc3)cc2)CC1)NO`, the IC50 in the data set on A-431, with MCF7 and in the data set with HCT-116 [11] was 1370 nM each time. In [12], the inhibition was 65%.
